Each structure is given as a SMILES string. Active and inactive are the calls of the source. The rule behind the calls is not given here.

The values that follow come from PubChem BioAssay AID489006 (Sanford-Burnham Center for Chemical Genomics, 2010).

In the assay the test system is Jurkat NF-kB reporter, luminescence. Nature of the assay: NF-kB reporter inhibition in Jurkat cells, dose response, selectivity assay for B-cell receptor NF-kB inhibitor project, cell-based, luminescence (AID 489006).
Broadly, the IC50 is the concentration needed to halve the response being measured. Consider `COc1ccc(NS(=O)(=O)c2ccc(-c3coc(C)n3)cc2)cc1OC`, for which the IC50 was > 80 µM (inactive).
To `CCN1C(=O)c2cccc3c(S(=O)(=O)NCC4CCCO4)ccc1c23` (stereo not drawn) belongs > 80 µM (inactive); to `O=C(CN1C(=O)c2ccccc2S1(=O)=O)c1ccc(Cl)cc1Cl`, 0.78 µM.
Turning to `N#CC1=C(N)Oc2cc(Nc3ccccc3)ccc2C1c1ccncc1` (stereo not drawn), the IC50 is 60.6 µM (inactive).
To `Cc1cc(-c2cc(C(=O)NCc3ccccc3)on2)nc(S(C)(=O)=O)n1` belongs 3.91 µM.
To `Cc1c(CCC(=O)N2CCC[C@H]2C(=O)O)c(=O)oc2cc3oc4c(c3cc12)CCCC4` belongs > 80 µM (inactive).
For `Cc1cc(C)nc(Sc2ccc([N+](=O)[O-])cc2[N+](=O)[O-])n1` the value was 11.7 µM; for `C(=N\Nc1nc(Nc2ccccc2)nc(Nc2ccccc2)n1)/c1cccnc1`, > 80 µM (inactive); for `ClCc1nnc(-c2ccccc2)o1`, 10.5 µM.
In the case of `CCOC(=O)C1CCN(c2ncnc3c2cnn3-c2ccc(OC)cc2)CC1`, the IC50 is > 80 µM (inactive).
For `Cc1cccn2c(=O)c3cc(C(=O)NC4CCCCC4)c(=N)n(CCN4CCOCC4)c3nc12` the value was > 80 µM (inactive); for `CCn1c(=O)cc(SCC(=O)N2CCC(C)CC2)c2ccccc21`, > 80 µM (inactive).
As to `Cc1cc(C)c2nc(NC(=O)[C@@H](NC(=O)c3cccc(S(=O)(=O)N4CCOCC4)c3)C(C)C)sc2c1`, the IC50 is 20.8 µM (inactive).
For `CN(CC1CCCO1)S(=O)(=O)c1ccc(C(=O)Nc2nc3cc4c(cc3s2)OCO4)cc1` (stereo not drawn) the value was > 80 µM (inactive).
Regarding `Cc1ccc(C)c(-n2nnnc2Sc2nnnn2-c2ccccc2)c1`, the IC50 is 1.42 µM.
For `Cc1nn(C(C)(C)C)c(C)c1/C=N/OC(=O)Nc1ccc(Cl)c(Cl)c1` the value was 0.208 µM; for `O=C(CCCc1nc(-c2ccccc2Cl)no1)NC1CCCC1`, 1.02 µM.
With `COc1cc(-c2cc(=O)c3c(O)c(OC)c(OC)c(OC)c3o2)cc(OC)c1OC`, the IC50 is > 80 µM (inactive).
To `CCCCOc1ccc(NC(=O)C(=O)NCCCn2ccnc2)cc1` belongs > 80 µM (inactive).
With `CCc1ccc(-c2nnn(CCC(=O)OC)n2)cc1`, the IC50 was 1.78 µM.
`Cc1ccc(-c2nc(C(=O)NCC3CCCO3)cc3c2[nH]c2ccccc23)cc1` (stereo not drawn): the IC50 was 23.4 µM (inactive).
For the compound `Cc1ccc(/C=C2\SC(=S)N(CCC(=O)NNC(=O)c3ccncc3)C2=O)cc1`, the IC50 was > 80 µM (inactive).
For `CNC(=O)CSc1nc2nn(-c3ccccc3)c(=O)c-2c2n1CCCCC2` the value was > 80 µM (inactive); for `O=C(NCCC1CCCCN1S(=O)(=O)c1ccc(Cl)cc1)C(=O)NCc1ccncc1` (stereo not drawn), > 80 µM (inactive).
To `CCOc1ccc(-c2nnc(SCC(=O)Nc3cc(C)on3)o2)cc1` belongs 1.52 µM; to `N=c1c2c(n(Cc3ccc(Cl)c(Cl)c3)c3c1CCC3)CCCC2`, 9.18 µM; to `CCSc1ncc(Cl)c(C(=O)Nc2sc3c(c2C(=O)NCc2cccnc2)CCCC3)n1`, > 80 µM (inactive).
For `CC(=O)c1cccc(S(=O)(=O)Nc2cc(C(F)(F)F)ccc2N2CCOCC2)c1` the value was 62.2 µM (inactive); for `O=C(Nc1nc(-c2ccccc2)cs1)c1ccccc1NS(=O)(=O)c1ccc(F)cc1`, 19 µM.
Consider `CC1=CC(C)(C)Nc2ccc(OC(=O)c3ccco3)cc21`, for which the 50% inhibitory concentration (IC50) was 1.4 µM.
To `Cn1c(=O)cc(OCCCC(=O)NCc2ccccn2)c2ccccc21` belongs > 80 µM (inactive); to `O=C(O)CCSc1nc2ccccc2s1`, 6.75 µM.
For `CC(C)(C)c1ccc(-c2cc(N)n[nH]2)cc1`, the IC50 is 6.02 µM.
To `O=c1cccc2c1c1cc[nH]c3ccc(=O)n2c31` belongs 2.3 µM; to `Cn1c(=O)cc(SCC(=O)N2CCCC2)c2cc(Cl)ccc21`, > 80 µM (inactive).
For `CC(C)N1C(=O)S/C(=C/c2ccc3c(c2)n(C)c(=O)n3C)C1=O` the value was > 80 µM (inactive); for `CCc1sc(C(=O)Nc2cccc(-n3cnnn3)c2)cc1C`, > 80 µM (inactive); for `C[C@H]1CCC/C=C/C2C[C@H](O)CC2[C@H](O)/C=C/C(=O)O1` (stereo partly drawn), > 80 µM (inactive).
For `N=c1ccn(Cc2ccccc2Cl)cc1` the value was > 80 µM (inactive); for `O=C(Nc1ccc(NC(=O)c2cc3ccccc3o2)cc1)c1ccc2c(c1)OCCO2`, > 80 µM (inactive).
As to `CCCCCCn1c(-c2ccco2)nc2oc3cc(OC)ccc3c(=O)c2c1=O`, the IC50 is > 80 µM (inactive).
To `CCN(C(=O)CN1C(=O)NC(c2ccccc2)(c2ccc(C)c(C)c2)C1=O)C1CCCCC1` (stereo not drawn) belongs 38.9 µM (inactive); to `COc1ccc(C(C(=O)NC2CCCCC2)N(C(=O)CCl)c2ccc(Cl)cc2)cc1` (stereo not drawn), 0.47 µM.
With `CCN1CCN(C(=O)CSc2cc(=O)n(CC)c3ccccc23)CC1`, the IC50 was > 80 µM (inactive).
As for `Cc1nnc2c3ccccc3c(-c3ccccc3)nn12`, the IC50 is > 80 µM (inactive).
In the case of `Oc1[nH]c2ccccc2c1N=Nc1nc(Nc2ccccc2)nc(N2CCOCC2)n1`, the IC50 was 9.4 µM.
To `COc1cc(C2C(C#N)=C(N)Oc3cc(N)ccc32)cc(OC)c1OC` (stereo not drawn) belongs > 80 µM (inactive); to `CCN1C(=O)c2cccc3c(S(=O)(=O)Nc4ccccc4)ccc1c23`, 48.9 µM (inactive).
As to `COC(=O)C(C)Oc1cc(C)cc2oc(=O)c3c(c12)CCC3` (stereo not drawn), the IC50 was 49.9 µM (inactive).
For `COc1cc(/C=N/Nc2nc(Nc3ccccc3)nc(N3CCOCC3)n2)ccc1OC(=O)c1ccco1` the value was > 80 µM (inactive); for `Cn1c(=O)n(C)c2cc(C(=O)Nc3ccc4c(c3)OCO4)ccc21`, > 80 µM (inactive).
Take `CN(C)CCCN=Cc1c(-c2ccccc2)[nH]n(-c2nc3ccccc3s2)c1=O`: the half-inhibitory concentration (IC50) is 0.88 µM.
For `CCc1ccc(/C=C2\SC(=S)N(CCC(=O)Nc3cc(C)on3)C2=O)cc1` the value was 4.06 µM.
For `Cc1ccc(-c2cc(C(=O)NCCCN3CCOCC3)no2)cc1` the value was 15.2 µM; for `COc1ccccc1/C=C1\SC(=S)N(CCC(=O)Nc2cccc(O)c2)C1=O`, > 80 µM (inactive).
To `Cn1nc(-c2ccc(Cl)cc2)c2cc(C(=O)N3CCCC3)sc21` belongs > 80 µM (inactive); to `COc1cc(-c2nc3n(n2)C(c2ccc(F)cc2)C2=C(CCCC2=O)N3)cc(OC)c1OC` (stereo not drawn), > 80 µM (inactive); to `N=c1c2c(n(Cc3ccc(Cl)cc3Cl)c3c1CCC3)CCCC2`, 16.2 µM.
In the case of `Cc1ccc(/C=C2\SC(=S)N(CCCC(=O)Nc3cc(C)on3)C2=O)cc1`, the concentration for half-maximal inhibition (IC50) is 17.7 µM.
As for `Cc1cc(C)cc(NC(=O)Nc2ccc(NC(=O)c3ccccc3O)cc2)c1`, the IC50 was > 80 µM (inactive).
To `O=C(c1cc2nc(-c3ccccc3)cc(-c3ccccc3)n2n1)N1CCN(C(=O)c2ccco2)CC1` belongs 31 µM (inactive).
Turning to `O=C1NC[C@H](c2ccccc2)OC(=O)[C@@H](Cc2ccc(F)cc2)C/C=C\C[C@H]1CC(=O)N(CCO)Cc1ccccc1`, the concentration for half-maximal inhibition (IC50) was 11.8 µM.
To `N#Cc1ccccc1COc1ccc(/C=C/C(=O)O)cc1` belongs 1.48 µM.
To `O=C(CN1C(=O)c2ccccc2S1(=O)=O)c1ccc(OC(F)F)cc1` belongs 3.15 µM; to `C=CCOC(=O)COc1cc(C)cc2oc(=O)c3c(c12)CCC3`, > 80 µM (inactive).
For `Cc1c(CC(=O)NCCCC(=O)O)c(=O)oc2cc3c(cc12)CCC(C)(C)O3` the value was 4.17 µM; for `COc1ccc(-c2ccc(C)cc2)cc1[C@H]1[C@H]2C=CC[C@@H](C)[C@@H]2C(=O)N1Cc1ccccc1`, > 80 µM (inactive); for `COc1ccc(/C=C2/SC(=S)N(CCCC(=O)Nc3cccc(O)c3)C2=O)cc1`, > 80 µM (inactive).
Consider `CCn1c(=O)c2cc(C(=O)NCc3cccs3)sc2c2ccccc21`, for which the IC50 is > 80 µM (inactive).
To `Cc1cc(C)cc(NC(=O)c2nnn(Cc3cc(C)ccc3C)c2N)c1` belongs > 80 µM (inactive).
For `Fc1ccc(C2=Nn3c(nnc3-c3n[nH]c4c3CCC4)SC2)cc1` the value was > 80 µM (inactive); for `CCC(CC)C(=O)Nc1ccc(Sc2ccc([N+](=O)[O-])cc2)cc1`, 6.83 µM; for `COc1cc(Br)c(C(=O)c2nccc3cc(OC)c(OC)cc23)cc1OC`, > 80 µM (inactive).
To `CCOc1cc2nc(-c3ccc(OC)c(OC)c3)nc(N3CCOCC3)c2cc1OC` belongs 45.8 µM (inactive); to `COc1cc(-c2[nH]nc3c2C(c2ccco2)C(C#N)=C(N)O3)cc(OC)c1OC` (stereo not drawn), 61 µM (inactive); to `Cc1ccc(O)c(NC(=O)COc2cc(C)ccc2C)c1`, > 80 µM (inactive).
As to `CC(C)C(=O)Nc1ccc(NC(=O)c2ccc3c(c2)OCO3)cc1`, the IC50 was > 80 µM (inactive).
As to `COc1ccc(/C=C2\SC(=S)N(CCC(=O)Nc3cccc(O)c3)C2=O)cc1`, the IC50 was > 80 µM (inactive).
To `O=C(Nc1nc2c(Br)cc(Br)cc2c(=O)s1)c1ccco1` belongs 2.52 µM; to `CN(C)c1cc[n+](Cc2c(Cl)cccc2Cl)cc1`, > 80 µM (inactive); to `COc1ccc(C(=O)N/N=C/c2ccc(OC)c(CN3CCCc4ccccc43)c2)cc1`, > 80 µM (inactive).
To `O=c1c(C=NCCCO)c(-c2ccccc2)[nH]n1-c1nc2ccccc2s1` belongs 3.46 µM.
For `CCc1ccc(/C=C2/SC(=S)N(CCC(=O)Nc3ccc(C(=O)O)cc3)C2=O)cc1` the value was > 80 µM (inactive).
Take `CCOc1ccc(/C=C2\SC(=S)N(CCCC(=O)NCCCN3CCOCC3)C2=O)cc1`: the IC50 was 0.52 µM.
For `COCCCn1c(=O)/c(=C\c2cccc(OC)c2OC)s/c1=C(/C#N)C(=O)Nc1ccc(C(=O)O)cc1` the value was > 80 µM (inactive); for `Cc1ccc(-c2c[n+]3c(n2-c2ccccc2)SCC3)cc1`, > 80 µM (inactive); for `Cn1c(=O)c2c(SCC(=O)Nc3ccccc3F)nc(-c3ccccc3F)nc2n(C)c1=O`, > 80 µM (inactive).
For `Cc1nc2cc(-c3ccc(Cl)cc3)nn2c(C)c1CCC(=O)NC(C)c1ccc2c(c1)OCCO2` (stereo not drawn) the value was 0.7 µM.
